Test results: patent US8455469B2, “Use of norgestimate as a selective inhibitor of TRPC3, TRPC6 and TRPC7 ion channels” (Sanofi, priority 2007, dated 2013)
pIC50: −log10 of the molar value. “Also recorded” adds a separate entry of the source.

What was measured:
V1 receptor = target: T1, V1 receptor (Rattus norvegicus, UniProt P30560); assay: Calcium imaging of fura-2-loaded A7r5 cells stimulated with AVP; type: cell-based; details: 10 μM, 5 min preincubation, calcium-free solution, 100 nM AVP
T1 construct: endogenous in cells; host or cells: A7r5 (rat aortic smooth muscle)
T1 sequence (P30560 whole entry): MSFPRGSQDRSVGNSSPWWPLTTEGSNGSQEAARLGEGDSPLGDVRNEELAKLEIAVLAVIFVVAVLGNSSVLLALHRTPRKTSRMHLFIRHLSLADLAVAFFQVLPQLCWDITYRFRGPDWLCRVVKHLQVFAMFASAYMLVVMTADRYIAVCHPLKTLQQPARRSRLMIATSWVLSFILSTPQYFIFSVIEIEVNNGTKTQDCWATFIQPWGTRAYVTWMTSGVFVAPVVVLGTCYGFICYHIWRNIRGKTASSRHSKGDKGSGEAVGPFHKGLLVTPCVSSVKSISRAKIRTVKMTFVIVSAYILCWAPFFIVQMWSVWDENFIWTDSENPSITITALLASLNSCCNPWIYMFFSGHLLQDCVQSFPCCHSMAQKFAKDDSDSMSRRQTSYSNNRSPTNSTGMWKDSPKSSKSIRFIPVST
Description: The A7r5 cell line (derived from rat thoracic aorta smooth muscle cells) is a model system to investigate endogenous TRPC channels (Jung et al., 2002; Soboloff et al., 2005). The channels were indirectly stimulated by Arg^8-vasopressin (AVP), a vasoconstricting peptide that activates the endogenous vasopressin V1A receptor in these cells (Thibonnier et al., 1991).
Time-dependent changes of [Ca^2+]i; of fura-2-loaded A7r5 cells. Cells were preincubated with or without (control) 10 μM norgestimate (NG) in calcium-free standard extracellular solution (1 mM EGTA) for 5 min before stimulating the V1 receptor by application of 100 nM AVP. Data are represented as means of 33 cells (control) and 36 cells (10 μM norgestimate). Measurements were performed using a standard imaging setup (TILL Photonics, Gräfelfing, Germany).

TRPC4 = target: T2, TRPC4 (Homo sapiens, UniProt Q9UBN4); assay: FLIPR Ca2+ influx measurement, trypsin-stimulated TRPC4 HEK293 cells; type: cell-based; details: 200 nM trypsin
T2 construct: expressed in transfected cells; host or cells: HEK293 (inducible expression)
T2 sequence (Q9UBN4 1-977): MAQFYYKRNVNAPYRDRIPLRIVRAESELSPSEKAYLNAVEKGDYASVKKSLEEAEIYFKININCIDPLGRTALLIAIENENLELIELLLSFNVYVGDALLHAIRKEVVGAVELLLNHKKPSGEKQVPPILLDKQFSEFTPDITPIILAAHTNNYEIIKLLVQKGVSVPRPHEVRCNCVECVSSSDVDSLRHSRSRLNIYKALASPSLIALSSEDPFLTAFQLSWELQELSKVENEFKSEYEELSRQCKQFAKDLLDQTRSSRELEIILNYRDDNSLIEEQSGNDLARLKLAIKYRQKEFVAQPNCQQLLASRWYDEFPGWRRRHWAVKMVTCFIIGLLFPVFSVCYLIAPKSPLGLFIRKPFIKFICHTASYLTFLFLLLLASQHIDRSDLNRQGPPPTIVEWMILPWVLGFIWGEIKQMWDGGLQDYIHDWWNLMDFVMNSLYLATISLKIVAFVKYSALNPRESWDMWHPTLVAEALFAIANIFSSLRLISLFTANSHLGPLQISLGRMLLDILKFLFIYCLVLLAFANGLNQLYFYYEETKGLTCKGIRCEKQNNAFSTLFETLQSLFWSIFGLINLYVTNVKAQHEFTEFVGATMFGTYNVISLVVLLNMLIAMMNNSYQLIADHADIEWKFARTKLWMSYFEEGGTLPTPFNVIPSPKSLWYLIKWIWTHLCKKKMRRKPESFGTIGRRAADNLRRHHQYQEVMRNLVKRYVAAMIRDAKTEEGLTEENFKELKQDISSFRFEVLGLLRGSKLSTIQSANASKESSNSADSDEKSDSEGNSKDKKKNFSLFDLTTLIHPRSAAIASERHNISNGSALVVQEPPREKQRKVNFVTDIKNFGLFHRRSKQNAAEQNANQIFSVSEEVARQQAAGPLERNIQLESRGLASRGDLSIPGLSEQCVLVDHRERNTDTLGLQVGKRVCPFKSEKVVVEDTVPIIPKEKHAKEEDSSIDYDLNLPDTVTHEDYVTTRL
Excerpt: In general, cells are provided which express a TRPC channel. Such cells can be produced using genetic methods known to a person skilled in the art. After having induced the expression of the TRPC channel, cells are usually plated into e.g. microtiter plates and grown. Usually the cells grow at the bottom of multiwell plates and are fixed. Thereafter, the cells are generally washed and loaded with a dye in a suitable loading buffer, preferably with a fluorescent dye such as fluo4am. After having removed the loading buffer, the cells are incubated with the test compound or modulator, in particular with a biochemical or chemical test compound as described above, e.g. in the form of a chemical compound library. Ca^2+ measurements can be carried out using e.g. a Fluorescence Imaging Plate Reader (FLIPR). To stimulate Ca^2+ influx through the TRPC channel a channel activator such as OAG should generally be applied.
When these experiments were performed, no direct physiological stimuli of TRPC4 and TRPC5 were known. Therefore, both channels had to be stimulated indirectly, e.g. by application of trypsin, a protease-activated receptor (PAR) stimulating protease. […] Kinetics and quantity of calcium store release in cells treated with 30 μM norgestimate were not changed compared to untreated cells. […]

C#C[C@]1(OC(C)=O)CC[C@H]2[C@@H]3CCC4=C/C(=N/O)CC[C@@H]4[C@H]3CC[C@@]21CC [norgestimate, D-17β-acetoxy-B-ethyl-17α ethinyl-gon-4-en-3-one oxime]
effect on V1 receptors (AVP-evoked [Ca2+]i) (V1 receptor): does not generally suppress | inhibitory effect on TRPC4-mediated Ca2+ influx (TRPC4; 30 μM norgestimate): only small inhibitory effects; also recorded: slightly reduced | pIC50 (TRPC4; FLIPR, n=2): < 4.52
